“And” between values parts separate entries of the source, which are not always exact repeats. Equal entries are not always repeated.
How the values were obtained:
[1] = tested on: Pseudomonas aeruginosa elastase; settings: incubation of the reagent with the enzyme; Nishino and Powers, J. Biol. Chem. (1980); cited from earlier work
rabbits [2] = experiment: Antigenicity test on rabbits, Test A: passive hemagglutinative value test (PHA test); format: in vivo, rabbit; settings: reciprocal of serum dilution; individual rabbits, 1 mg s.c. with Freund's incomplete adjuvant 3 to 4 times, blood two weeks after last inoculation
Protocol: (§1) Method: Three rabbits, each having 2.5 Kg of a body weight, were subcutaneously inoculated with each 1 mg of Toxoid I together with Freund's incomplete adjuvant and the inoculation was repeated 3 to 4 times at an interval of 2 weeks. On the day of two weeks after the last inoculation, blood was collected from the rabbits and was availed for following Tests A, B and C. The same method as the preceeding was conducted employing Toxoid II.
(§2) The values were determined according to a method described by one of the present inventors, Y. Homma, in The Japan J. Exp. Med., Vol. 45, No. 5, pages 361-365 (1975), and the values were expressed as a reciprocal number to a multiplied number of the dilution of sera.

ddY mice [3] = experiment: Elastase-neutralizing activity on mice; format: in vivo, mouse
Protocol: (§3) Sera of the tested rabbits were warmed at 56° C. for 30 minutes and 0.2 ml of the sera were added to 0.2 ml of elastase solution, to which normal saline solution was added up to a volume of 2 ml in total. The solution was left for 60 minutes at 37° C., then, 1 ml of 2% casein solution was added to 1 ml of the solution. The residual elastase activity was determined with the thus mixed solution.
(§4) To a solution of Toxoid I of this invention in a concentration of 0.5 mg/ml., an equal volume of 1% potassium alum solution was added. Each 0.2 ml of the solution, in which 50 μg of Toxoid I were contained, were inoculated into ddY mice of 4 weeks old respectively three times at an interval of 2 weeks. At just before and on the 14th day after the third inoculation, bloods were collected from each mouse and the values of PHA and elastase-neutralizing activity were inspected in the same manner as with Tests A and C in Experiment 1.

Casein = experiment: Proteinase activity on casein (Folin's method), specific activity in mPU; format: biochemical
Protocol: In Examples 1 and 2, the term "mPU/ml protein of a specific activity" signifies the proteinase activity determined by the following procedure:
Casein (2%, pH 7.4, 1 ml) is admixed with 1 ml of an appropriately diluted solution of an enzyme, and after a reaction at 40° C. for 10 minutes, 2.0 ml of a solution containing 0.1M trichloroacetic acid and 0.2M sodium acetate is immediately added for stopping a progress of the reaction. The mixture is kept at the same temperature for 20 minutes to precipitate unreacted casein completely and is filtered. 1 ml of the filtrate is subject to determination of tyrosine therein contained by the Folin's method. By the increase of 1γ of tyrosine per 1 minute, a proteinase activity of 1 mPU is to be indicated. 1 mPU×1,000 is equal to 1 PU.

[4] = Antigenic activity listed among the identified properties of the toxoids; settings: listed property
rabbits [5] = experiment: Antigenicity test on rabbits, Test C: elastase-neutralizing activity test of sera; format: in vivo, rabbit; settings: elastase activity neutralized by 1 ml of anti-serum; individual rabbits
Protocol: as §1, §3

ddY mice [6] = experiment: PHA value on mice; format: in vivo, mouse; settings: 50 μg with potassium alum three times, first and second collected bloods (just before and 14th day after third inoculation)
Protocol: as §2, §4

rabbits [7] = experiment: Antigenicity test on rabbits, Test B: precipitation in agar-gel test; format: in vivo, rabbit; settings: 22° C., 24 hours, dilution at which precipitation line first becomes observable, individual rabbits
Protocol: as §1
In 0.01M phosphate buffer-normal saline solution (pH 7.0) which contained 0.1% of sodium azide, agarose was dissolved to form a concentration of 1.5% by weight, and 10 ml of the solution were poured in a dish having 9 cm of a diameter and the solution was left to make the agar hard. Several holes were made on the hardened agar and antigens or antisera were separately poured into every hole and the agar was left at 22° C. for 24 hours long, then, the existence of a precipitation line was inspected. The concentration of antigens is expressed by a unit of μg/ml, wherein the numerator indicates a quantity of antigens and a denominator indicates the dilution volume which is required until a precipitation line will first becomes observable.

[8] = Antigenic activity of formalin-treated elastase samples by precipitation line (Table 1); format: binding; settings: quantity of antigen per dilution volume until a precipitation line first becomes visible; larger numeral = less potent
Description: Note: In the above Table 1, the antigenic activity is expressed by a unit of μg/ml, wherein the numerator indicates the quantity of antigen and the denominator indicates the dilution volume required until a precipitation line first becomes visible.

Row | Compound | effect on enzyme activity of elastase [1] | PHA Value (rabbits [2]) | elastase-neutralizing activity (ddY mice [3]; first collected blood (just before third inoculation)) [mPU/ml] | elastase-neutralizing activity (ddY mice [3]; second collected blood (14th day after third inoculation)) [mPU/ml] | specific activity (Casein; casein 2%, pH 7.4, 40° C., 10 minutes) [mPU/mg protein] | Enzymatic activity (Casein; listed property) | Antigenic activity [4] | Elastase-neutralizing Activity (mPU/ml) (rabbits [5]) | PHA Value (ddY mice [6]) | Antigen Concentration (rabbits [7]) [µg/mL] | Residual Proteinase Activity (%) (Casein; elastase samples treated with formalin (HCHO), Table 1) | Antigenic activity [8] [µg/mL]
1 | CC(C)C[C@@H](C(=O)N[C@@H](C)C(=O)NCC(N)=O)N(O)C(=O)CCl [Powers Reagent, chloroacetyl-N-hydroxy-L-leucyl-L-alanylglycinamide] | progressive loss of enzyme activity |  |  |  |  |  |  |  |  |  |  | 
2 | Toxoid I: toxoid prepared by inactivating Pseudomonas aeruginosa elastase with the Powers Reagent |  | 5120 and 2560 | 1.52 | 1.83 | 0.06 | Negative | Positive | 15 mPU/ml and 12 mPU/ml and 10 mPU/ml | 640 | 15 |  | 
3 | crystalline elastase: purified crystalline elastase obtained from Pseudomonas aeruginosa, raw material of the toxoids |  |  |  |  |  |  |  |  |  | 15 | 100 | 30

Reference: US4575459A, “Toxoids of elastase of Pseudomonas aeruginosa origin” (Toho Yakuhin Kogyo Kabushiki Kaisha, priority 1984, dated 1986)
